Drawing on US12344610B2, “APOL1 inhibitors and methods of use” (Maze Therapeutics, Inc., priority 2022, dated 2025), this text covers AC50 for twelve compounds.

For orientation: AC50 means the concentration at which the activity in the assay is half-maximal.

Structures are written as SMILES.

This assay concerns the target T1, APOL1 G2 (Homo sapiens, UniProt O14791, DEL388-389).
T1 construct: expressed in transfected cells; host or cells: HEK293 T-REx clonal line stably expressing GCaMP6f (HEK T-REx/GCaMP6f/APOL1 G2 K6.3), doxycycline induced
T1 sequence (O14791 with tags, fused parts or gaps DEL388-389): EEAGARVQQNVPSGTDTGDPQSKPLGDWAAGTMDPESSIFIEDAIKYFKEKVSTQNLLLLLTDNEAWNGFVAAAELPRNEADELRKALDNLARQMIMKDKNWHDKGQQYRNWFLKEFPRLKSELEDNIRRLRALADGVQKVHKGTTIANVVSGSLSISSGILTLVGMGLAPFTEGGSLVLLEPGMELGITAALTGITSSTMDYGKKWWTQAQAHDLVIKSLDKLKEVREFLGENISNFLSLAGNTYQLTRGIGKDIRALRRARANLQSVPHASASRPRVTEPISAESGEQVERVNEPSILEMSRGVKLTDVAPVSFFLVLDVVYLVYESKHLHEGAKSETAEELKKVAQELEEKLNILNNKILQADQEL
The assay can be described thus: APOL1-mediated calcium transport (calcium influx) assay, HEK T-REx/GCaMP6f/APOL1 G2 K6.3 cells, FLIPR TETRA. In kind it is cell-based. To be noted: prevention of calcium influx; geometric mean of at least 2 assay runs; † = average of a technical replicate from a single assay run. In a few lines: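 A HEK293 T-REx clone stably expressing GCaMP6f had APOL1 G2 induced with doxycycline (20 ng/mL solution added) for 6 h. Cells were then washed into Ca2+-free Tyrode's buffer (pH 7.4) and preincubated with compounds (duplicate 8-point) for 10 min at room temperature. Ca2+ injection to 5 mM final produced FLIPR GCaMP fluorescence, giving AC50 for influx inhibition (geometric mean, ≥2 runs).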
As for `C[C@]1(O)C[C@@H](N2C(=O)CCc3cc(OCCN4CCC5(CC4)C(=O)Nc4ccc(C(F)F)cc45)cnc32)C1` [Compound 274, 5-(difluoromethyl)-1′-[2-({7-oxo-8-[(cis)-3-hydroxy-3-methylcyclobutyl]-5,6,7,8-tetrahydro-1,8-naphthyridin-3-yl}oxy)ethyl]-1,2-dihydrospiro[indole-3,4′-piperidin]-2-one], the AC50 is 722 nM.

`C[C@]1(O)C[C@@H](N2C(=O)CCc3cc(OCCN4CCC5(CC4)C(=O)Nc4ccc(Cl)cc45)cnc32)C1` [Compound 275, 5-chloro-1′-[2-({7-oxo-8-[(cis)-3-hydroxy-3-methylcyclobutyl]-5,6,7,8-tetrahydro-1,8-naphthyridin-3-yl}oxy)ethyl]-1,2-dihydrospiro[indole-3,4′-piperidin]-2-one]: the AC50 was determined as 640 nM.

Turning to `CS(=O)(=O)C1(c2ncc(OCCN3CCC4(CC3)C(=O)Nc3ccc(Cl)cc34)cn2)COC1` [Compound 276, 5-chloro-1′-(2-{[2-(3-methanesulfonyloxetan-3-yl)pyrimidin-5-yl]oxy}ethyl)-1,2-dihydrospiro[indole-3,4′-piperidin]-2-one], the AC50 is 1750 nM.

`CS(=O)(=O)C1(c2ncc(OCCN3CCC4(CC3)C(=O)Nc3ccc(C#N)cc34)cc2F)CC1` [Compound 283, 1′-(2-{[5-fluoro-6-(1-methanesulfonylcyclopropyl)pyridin-3-yl]oxy}ethyl)-2-oxo-1,2-dihydrospiro[indole-3,4′-piperidine]-5-carbonitrile]: the AC50 is 2000 nM. Next, `CC(O)c1ncc(OCCN2CCC3(CC2)C(=O)Nc2ccc(Cl)cc23)cn1` (stereo not drawn) [Compound 284, 5-chloro-1′-(2-{[2-(1-hydroxyethyl)pyrimidin-5-yl]oxy}ethyl)-1,2-dihydrospiro[indole-3,4′-piperidin]-2-one]: 756 nM. As for `C[C@]1(O)C[C@@H](N2C(=O)OCc3cc(OCCN4CCC5(CC4)C(=O)Nc4ccc(Cl)cc45)cnc32)C1` [Compound 289, 5-chloro-1′-[2-({2-oxo-1-[(cis)-3-hydroxy-3-methylcyclobutyl]-1H,2H,4H-pyrido[2,3-d][1,3]oxazin-6-yl]oxy)ethyl]-1,2-dihydrospiro[indole-3,4′-piperidin]-2-one], the AC50 was 552 nM. For `CC1(O)CN(c2ncc(OCCN3CCC4(CC3)C(=O)Nc3ccc(Cl)cc34)cn2)C1` [Compound 300, 5-chloro-1′-(2-{[2-(3-hydroxy-3-methylazetidin-1-yl)pyrimidin-5-yl]oxy}ethyl)-1,2-dihydrospiro[indole-3,4′-piperidin]-2-one] the value was 674 nM. For `O=C1Nc2ccc(Cl)cc2C12CCN(CCOc1cnc(N3CC(O)C3)nc1)CC2` [Compound 301, 5-chloro-1′-(2-{[2-(3-hydroxyazetidin-1-yl)pyrimidin-5-yl]oxy}ethyl)-1,2-dihydrospiro[indole-3,4′-piperidin]-2-one] the value was 586 nM; for `CS(=O)(=O)C1CN(c2ncc(OCCN3CCC4(CC3)C(=O)Nc3ccc(Cl)cc34)cn2)C1` [Compound 302, 5-chloro-1′-(2-{[2-(3-methanesulfonylazetidin-1-yl)pyrimidin-5-yl]oxy}ethyl)-1,2-dihydrospiro[indole-3,4′-piperidin]-2-one], 1030 nM; for `CC(C)(O)c1ncc(OCCN2CCC3(CC2)C(=O)Nc2ccc(Cl)cc23)cn1` [Compound 305, 5-chloro-1′-(2-{[2-(2-hydroxypropan-2-yl)pyrimidin-5-yl]oxy}ethyl)-1,2-dihydrospiro[indole-3,4′-piperidin]-2-one], 649 nM. Next, `CC1(O)CN(c2nccc3cc(OCCN4CCC5(CC4)C(=O)Nc4ccc(Cl)cc45)cnc23)C1` [Compound 306, 5-chloro-1′-(2-{[8-(3-hydroxy-3-methylazetidin-1-yl)-1,7-naphthyridin-3-yl]oxy}ethyl)-1,2-dihydrospiro[indole-3,4′-piperidin]-2-one]: 1400 nM.

With `O=C1Nc2ccc(Cl)cc2C12CCN(CCOc1cnc3c(N4CC(O)C4)nccc3c1)CC2` [Compound 314, 5-chloro-1′-(2-{[8-(3-hydroxyazetidin-1-yl)-1,7-naphthyridin-3-yl]oxy}ethyl)-1,2-dihydrospiro[indole-3,4′-piperidin]-2-one], the AC50 worked out at 968 nM.
